Measured values taken from US4122184A, “Benzimidazole insecticides” (priority 1977, dated 1978).

How the values were obtained:
[1] = test system: Two-spotted Spider Mite; experiment: Two-spotted Spider Mite test; type: in vivo, Tetranychus urticae (Acarina); settings: 25 ppm, 48 h
Description: The procedure in this test is the same as that in the previous aphid test, except that about 100 two-spotted spider mites from a stock colony raised on squash plants are transferred to a cut squash cotyledon. The mortality is estimated 48 hours after spraying. The same rating scale is used.

[2] = test system: House Fly; experiment: Housefly (Contact) Test; type: in vivo, Musca domestica (Diptera); settings: 50 ppm, 24 h
Description: Rearing cages containing four-day old adult house flies are chilled at 35°-40° F. for about 1 hour. One hundred flies are transferred from the rearing cage to each test cage using a small scoop. The caged flies are kept for 1-2 hours at 70°-80° F. The cages are sprayed in the same manner as described for the milkweed bug with 5 ml. of the test formulation. Two unsprayed cages are held as controls and two cages are sprayed with a 50 ppm DDT formulation as a reference standard. Mortality counts are made 24 hours after spraying. […] The same rating scale is employed as heretofore.

[3] = test system: Oriental Cockroach; experiment: Oriental Roach Test; type: in vivo, Blatta orientalis (Orthoptera); settings: 24 h
Description: A rearing pan of late instar (3-4 months old) roaches is placed in a cold room for about 1 hour. Ten nymphs are taken from the pan and placed in each cage and the caged insects are kept at 70°-80° F. for 1 hour. The test cages are then sprayed in the manner indicated above in the milkweed bug test using 5 ml. of a formulation containing a specified amount of the insecticide. The test cages are held for 72 hours during which time the cockroaches are neither fed nor watered. Controls consist of 2 unsprayed cages, two cages sprayed with the formulation alone and 2 cages with a formulation containing 1000 ppm of heptachlor. Mortality counts are made 24 hours after spraying by shaking the cages lightly. All cockroaches remaining in the bottom are counted as dead.

[4] = test system: Boll Weevil; experiment: Boll Weevil Test; type: in vivo, Anthonomus grandis (Coleoptera); settings: 48 h
From the text: The procedure is identical to that employed for the Mexican bean beetle and the Southern armyworm, except that 10 adult boll weevils are placed on cotton leaves that have been dipped into formulations of the test compounds. The same rating scale is used.

[5] = test system: Southern Corn Rootworm Adults; experiment: Field trial, stomach poison test; type: in vivo
Method in brief: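 Mortality scored 0–9 at 24, 48 and 72 h after insects fed on treated leaves. Leaves sprayed at 10 psi or dipped in test solutions, air-dried; 5 or 10 insects/dish, 1–2 replicates, typically 2–3 rates per compound. Values are average mortality per concentration.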

[6] = test system: Southern Corn Rootworm Adults; experiment: Field trial, contact poison test; type: in vivo
Method in brief: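 Infested plants in water-filled bottles sprayed by atomizer at 10 psi with compound at several concentrations. Mortality read at 24, 48 and 72 hours on a 0–9 scale (0 = 0-10%, 9 = 91-100%), averaged per concentration.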

[7] = test system: Boll Weevil; experiment: Field trial (first summer), topical; type: in vivo, Anthonomus grandis; settings: .078125 μg/μl
Description: (§1) In a variation of the above test, 1 microliter of a test solution containing a predetermined number of micrograms of benzimidazole was applied directly to larvae or adult insects.
(§2) During the previous summer similar field trials were conducted employing the same tests as heretofore but with some additional species of insects not included in the later tests. The results listed below are for tests in which an insect mortality was established by a given application route and at a given concentration in a particular test. The same 0 - 9 scoring system is used as is the designation of compounds by alphabetical symbols.

[8] = test system: Confused Flour Beetle; experiment: Field trial (first summer), topical; type: in vivo; settings: .3125 μg/μl
Description: as §1, §2

[9] = test system: Picnic Beetle; experiment: Field trial (first summer), topical; type: in vivo; settings: .078125 μg/μl
Description: as §1, §2

[10] = Solubility of sodium salt; type: physicochemical

Compound: O=[N+]([O-])c1cc(C(F)(F)F)cc2nc(C(F)(F)F)[nH]c12.[Na] [B, 2,6-bis(trifluoromethyl)-4-nitrobenzimidazole, sodium salt]
- mortality rating [1]: 8.5
- mortality rating [2]: 8.5
- mortality rating ([3]; 25 ppm): .5
- mortality rating ([3]; 100 ppm): 3.5
- mortality rating ([4]; 25 ppm): 8.5
- mortality rating ([4]; 250 ppm): 8.5
- average mortality rating ([5]; 25 ppm): 4
- average mortality rating ([5]; 50 ppm): 5
- average mortality rating ([5]; 100 ppm): 9 (91-100 percent mortality)
- average mortality rating ([6]; 25 ppm): 0 (0-10 percent)
- average mortality rating ([6]; 50 ppm): 3
- average mortality rating ([6]; 100 ppm): 8
- insect mortality rating [7]: 9 (91-100 percent mortality)
- insect mortality rating [8]: 9 (91-100 percent mortality)
- insect mortality rating [9]: 9 (91-100 percent mortality)
- solubility in acid ([10]; acid): insoluble in acid
- solubility in water ([10]; water): water soluble
